According to patent US20100048530A1, “New 2-Azetidinone Derivatives As Cholesterol Absorption Inhibitors For The Treatment Of Hyperlipidaemic Conditions” (ASTRAZENECA AB, priority 2005, published 2010):

Tested on: C57BL/6 female mice
Assay: In vivo testing of cholesterol absorption inhibitors (A)
Details: 0.2 μmol/kg, gavage, procedure A
Procedure: In Vivo Testing of Cholesterol Absorption Inhibitors (A)
C57BL/6 female mice were maintained on regular chow diet and housed in individual cages to collect faeces. Mice were fasted for 3 hours and then gavaged with vehicle or compound. Half an hour later the mice were gavaged with radiolabelled cholesterol. Six hours after the ^14C-cholesterol gavage blood samples were taken via the tail and plasma prepared to determine how much cholesterol were absorbed. 24 hours after the gavage of ^14C-cholesterol the mice were bled and plasma were prepared for analysis. Faeces were collected for 24 hours to assess absorption efficiency.

`O=C(O)CNC(=O)[C@@H](CC1CCCCC1)NC(=O)CNC(=O)COc1ccc([C@@H]2[C@@H](SCC(O)c3ccc4c(c3)OCCO4)C(=O)N2c2ccc(F)cc2)cc1` (stereo partly drawn) [Example 1, N-({4-[(2R,3R)-3-{[2-(2,3-dihydro-1,4-benzodioxin-6-yl)-2-hydroxyethyl]thio}-1-(4-fluorophenyl)-4-oxoazetidin-2-yl]phenoxy}acetyl)glycyl-3-cyclohexyl-D-alanylglycine] was tested, and the “inhibition of 14C-cholesterol absorption” value was 43%.
